In this series the target is Potassium voltage-gated channel subfamily H member 2 (Homo sapiens, UniProt Q12809). Description: hERG Assay. As for the experimental part: Experiments were performed on the SyncroPatch 384PE (Nanion Technologies) high throughput patch clamp platform at rt and used medium resistance chips with 4 patch holes per site. hERG-expressing Chinese hamster ovary K1 (CHO) cell line were used in assay-ready format and kept in liquid nitrogen until use. 2 vials of cells (10×10^6 cells per vial) were thawed and added to 20 mL Hepes-buffered saline solution (HBSS). HBSS comprised 140 mM NaCl, 4 mM KCl, 10 mM HEPES and 5 mM Glucose (pH 7.4). The internal patch clamp solution was KF 120 mM, KCl 20 mM, HEPES 10 mM, EGTA 10 mM, and 25 μM Escin (pH7.2). After the initial sealing process was complete, a seal enhancer solution comprising HBSS supplemented with 10 mM CaCl2 and 1 mM MgCl2 was applied to cells. The external solution was then exchanged (4 times) for external patch clamp solution comprising NaCl 80 mM, KCl 4 mM, HEPES 10 mM, CaCl2 2 mM, MgCl2 1 mM, glucose 5 mM, and NMDG 60 mM (pH 7.4). All solutions were stored at rt, except Escin, which was stored at 4° C. All compounds were dispensed in greiner-bio 384 well plates and tested in a 6 point cumulative assay (final DMSO concentration 0.33%). Only wells that passed acceptance criteria (30 MegaOhm seal resistance, Z prime >0.4 and current size >0.2 nA) were used in this analysis.
For orientation: Block of hERG is tested as a sign of cardiac risk.

pIC50: −log10 of the molar value.

Potassium voltage-gated channel subfamily H member 2, sequence (Q12809 whole entry): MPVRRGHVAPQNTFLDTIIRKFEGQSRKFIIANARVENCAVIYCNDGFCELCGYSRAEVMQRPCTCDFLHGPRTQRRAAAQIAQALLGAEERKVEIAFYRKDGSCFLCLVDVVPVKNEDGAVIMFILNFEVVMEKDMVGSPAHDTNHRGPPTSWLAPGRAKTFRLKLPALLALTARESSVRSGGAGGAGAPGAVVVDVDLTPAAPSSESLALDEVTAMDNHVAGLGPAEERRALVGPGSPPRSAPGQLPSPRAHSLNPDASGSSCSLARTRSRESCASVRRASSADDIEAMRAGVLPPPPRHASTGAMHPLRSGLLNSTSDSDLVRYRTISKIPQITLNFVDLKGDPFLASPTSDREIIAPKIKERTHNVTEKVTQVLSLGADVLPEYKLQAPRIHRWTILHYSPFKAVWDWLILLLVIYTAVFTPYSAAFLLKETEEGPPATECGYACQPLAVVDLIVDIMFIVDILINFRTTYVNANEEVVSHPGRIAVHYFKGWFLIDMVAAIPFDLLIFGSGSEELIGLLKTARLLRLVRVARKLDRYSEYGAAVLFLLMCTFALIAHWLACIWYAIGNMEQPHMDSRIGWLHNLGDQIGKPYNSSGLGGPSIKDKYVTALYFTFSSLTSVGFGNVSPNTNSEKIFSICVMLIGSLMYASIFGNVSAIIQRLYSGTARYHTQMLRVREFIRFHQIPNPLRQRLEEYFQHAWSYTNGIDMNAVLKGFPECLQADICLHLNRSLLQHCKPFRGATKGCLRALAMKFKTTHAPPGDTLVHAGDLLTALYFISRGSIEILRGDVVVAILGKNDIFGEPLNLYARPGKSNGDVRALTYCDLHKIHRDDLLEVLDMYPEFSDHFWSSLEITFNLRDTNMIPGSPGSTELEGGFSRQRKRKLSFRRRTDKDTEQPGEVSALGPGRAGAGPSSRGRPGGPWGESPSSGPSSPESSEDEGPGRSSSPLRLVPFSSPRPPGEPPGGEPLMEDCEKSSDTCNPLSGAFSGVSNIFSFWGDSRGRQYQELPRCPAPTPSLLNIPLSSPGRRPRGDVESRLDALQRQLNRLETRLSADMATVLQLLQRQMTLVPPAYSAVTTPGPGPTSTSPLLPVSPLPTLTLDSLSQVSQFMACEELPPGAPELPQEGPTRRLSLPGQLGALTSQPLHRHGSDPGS

`C[C@@]1(O)CC[C@@H](Nc2nnc(-c3ccc(C(F)(F)F)cc3O)c3ccncc23)C1` [US11970463, Example 38]: the pIC50 (commonly the negative decadic logarithm of the IC50, by convention in mol/L) was 4.47.

These data come from BindingDB's records for patent US11970463 (Astrazeneca, 2024).
